This is an account of results in patent publication US11524966B1 (Valo Early Discovery, Inc., priority 2017, dated 2022).

For orientation: IC50 means the concentration at which inhibition is half-maximal.

The test concerns the target T1, USP28 (His-tagged USP28-FL-mammalian) (Homo sapiens, UniProt Q96RU2).
T1 construct: Expression of USP28 (1-1077)-TEV-6*His (pTT5 vector); made in house; host or cells: Expi293f cells (pTT5 vector)
T1 sequence (Q96RU2 1-1077): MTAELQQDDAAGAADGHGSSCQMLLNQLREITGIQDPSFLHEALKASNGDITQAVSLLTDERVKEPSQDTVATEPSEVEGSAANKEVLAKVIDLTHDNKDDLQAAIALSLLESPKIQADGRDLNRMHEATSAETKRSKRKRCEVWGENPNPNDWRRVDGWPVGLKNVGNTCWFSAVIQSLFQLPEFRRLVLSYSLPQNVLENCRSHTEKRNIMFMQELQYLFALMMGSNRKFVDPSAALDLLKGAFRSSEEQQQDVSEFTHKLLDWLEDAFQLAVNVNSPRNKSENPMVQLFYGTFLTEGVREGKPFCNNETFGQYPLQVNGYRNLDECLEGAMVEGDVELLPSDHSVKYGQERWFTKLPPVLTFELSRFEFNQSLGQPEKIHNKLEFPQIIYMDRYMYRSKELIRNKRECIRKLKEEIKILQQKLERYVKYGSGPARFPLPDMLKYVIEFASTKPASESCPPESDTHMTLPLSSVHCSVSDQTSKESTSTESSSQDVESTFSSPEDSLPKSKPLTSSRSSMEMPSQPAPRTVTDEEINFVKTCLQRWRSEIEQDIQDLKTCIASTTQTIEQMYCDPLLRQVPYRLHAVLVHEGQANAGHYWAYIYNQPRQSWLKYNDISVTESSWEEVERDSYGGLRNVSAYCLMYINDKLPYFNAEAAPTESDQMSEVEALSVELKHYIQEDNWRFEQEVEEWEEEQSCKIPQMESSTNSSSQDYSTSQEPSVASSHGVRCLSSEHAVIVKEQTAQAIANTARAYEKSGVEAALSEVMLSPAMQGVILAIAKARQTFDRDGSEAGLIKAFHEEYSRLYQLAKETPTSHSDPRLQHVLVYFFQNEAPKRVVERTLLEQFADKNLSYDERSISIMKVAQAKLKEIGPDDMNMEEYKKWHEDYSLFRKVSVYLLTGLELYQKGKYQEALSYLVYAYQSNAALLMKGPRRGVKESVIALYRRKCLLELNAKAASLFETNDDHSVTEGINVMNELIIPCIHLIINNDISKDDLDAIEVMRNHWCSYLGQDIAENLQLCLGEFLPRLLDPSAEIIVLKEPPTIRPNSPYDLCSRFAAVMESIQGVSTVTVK
Description: Ubiquitin-Rhodamine 110 Assay for USP28 Activity, Example A-1(a). The test is classed as biochemical. The following applies: Ubiquitin-Rhodamine 110 assay, Example A-1(a); read-out: USP28 A-1(a) IC50 range. The gist of the method: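 Full-length His-tagged human USP28 (1-1077, Expi293f-expressed), […], with 25 nM Ub-Rh110 (<<Km) in pH 8.0 Tris buffer with BME, BGG, Triton X-100. 10-point dilutions (25 μM-1.3 nM), 45 min at room temperature, citric acid stop, fluorescence 485/535 nm; IC50 by 4-parameter fit.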
As for `CO[C@]1(C)CN(c2ccc3c(n2)CC[C@H](NC(=O)c2sc4nc(C)ccc4c2N)C3)C[C@H]1N` [Example 211, 3-amino-N-[(6S)-2-[(3R,4R)-4-amino-3-methoxy-3-methylpyrrolidin-1-yl]-5,6,7,8-tetrahydroquinolin-6-yl]-6-methylthieno[2,3-b]pyridine-2-carboxamide], the IC50 fell in the range of 50 to 200 nM. On to `CO[C@H]1CN(c2cc3c(cc2C#N)C[C@@H](NC(=O)c2sc4nc(C)ccc4c2N)CO3)C[C@@H]1N` [Example 177, 3-amino-N-[(3R)-7-[(3S,4S)-3-amino-4-methoxypyrrolidin-1-yl]-6-cyano-3-4-dihydro-2H-1-benzopyran-3-yl]-6-methylthieno[2,3-b]pyridine-2-carboxamide], for which the IC50 lay in the range of 1 to 50 nM.

`O=C(N[C@@H]1CCc2cc(N3CC4CCC(C3)N4)cc(F)c2C1)c1cnc2c(c1)[C@@H]1C[C@@H]1CN2` [Example 193, (6aS,7aR)-N-[(2R)-6-{3,8-diazabicyclo[3.2.1]octan-3-yl}-8-fluoro-1,2,3,4-tetrahydronaphthalen-2-yl]-5H,6H,6aH,7H,7aH-cyclopropa[c]1,8-naphthyridine-2-carboxamide]: the IC50 lay within 200 to 2000 nM. With `Cc1ccc2c(N)c(C(=O)N[C@H]3Cc4ccc(N5CCNCC5)nc4[C@@H](C)C3)sc2n1` [Example 206, 3-amino-6-methyl-N-[(6R,8S)-8-methyl-2-(piperazin-1-yl)-5,6,7,8-tetrahydroquinolin-6-yl]thieno[2,3-b]pyridine-2-carboxamide], the concentration for half-maximal inhibition (IC50) was 50 to 200 nM. For the molecule `CO[C@@H]1CN(c2ccc3c(n2)CC[C@H](NC(=O)c2sc4nc(C)ccc4c2N)C3)C[C@@]1(C)N` [Example 240, 3-amino-N-[(6S)-2-[(3R,4R)-3-amino-4-methoxy-3-methylpyrrolidin-1-yl]-5,6,7,8-tetrahydroquinolin-6-yl]-6-methylthieno[2,3-b]pyridine-2-carboxamide], the IC50 is 200 to 2000 nM. For `O=C(N[C@H]1CCc2cc(N3CC4CCC(C3)N4)cc(F)c2C1)c1cnc2c(c1)[C@H]1C[C@H]1CN2` [Example 192, (6aR,7aS)-N-[(2S)-6-{3,8-diazabicyclo[3.2.1]octan-3-yl}-8-fluoro-1,2,3,4-tetrahydronaphthalen-2-yl]-5H,6H,6aH,7H,7aH-cyclopropa[c]1,8-naphthyridine-2-carboxamide], the IC50 was in the range of 50 to 200 nM.

In the case of `CO[C@H]1CN(c2ccc3c(c2C#N)CC[C@H](NC(=O)c2sc4nc(C)ccc4c2N)C3)C[C@@H]1N` [Example 178, 3-amino-N-[(2S)-6-[(3S,4S)-3-amino-4-methoxypyrrolidin-1-yl]-5-cyano-1,2,3,4-tetrahydronaphthalen-2-yl]-6-methylthieno[2,3-b]pyridine-2-carboxamide], the IC50 was 1 to 50 nM. In the case of `Cc1ccc2c(N)c(C(=O)N[C@H]3COc4cc(N5CC[C@@H]6CNC[C@@H]65)cc(F)c4C3)sc2n1` [Example 221, N-[(3R)-7-[(3aR,6aR)-octahydropyrrolo[2,3-c]pyrrol-1-yl]-5-fluoro-3,4-dihydro-2H-1-benzopyran-3-yl]-3-amino-6-methylthieno[2,3-b]pyridine-2-carboxamide], the IC50 was in the range of 1 to 50 nM.

On to `Cc1nc2sc(C(=O)N[C@H]3CCc4nc(N5CCNCC5)ccc4C3)c(N)c2cc1F` [Example 204, 3-amino-5-fluoro-6-methyl-N-[(6S)-2-(piperazin-1-yl)-5,6,7,8-tetrahydroquinolin-6-yl]thieno[2,3-b]pyridine-2-carboxamide], for which the IC50 fell in the range of 1 to 50 nM. For `COC[C@H]1CN(c2ccc3c(c2)CC[C@H](NC(=O)c2sc4nc(C)ccc4c2N)C3)C[C@H]1N` [Example 253, 3-amino-N-[(2S)-6-[(3S,4S)-3-amino-4-(methoxymethyl)pyrrolidin-1-yl]-1,2,3,4-tetrahydronaphthalen-2-yl]-6-methylthieno[2,3-b]pyridine-2-carboxamide], the IC50 fell in the range of 1 to 50 nM. Turning to `CCO[C@H]1CN(c2ccc3c(n2)OC[C@H](NC(=O)c2sc4nc(C)cnc4c2N)C3)C[C@@H]1N` [Example 182, 7-amino-N-[(3R)-7-[(3S,4S)-3-amino-4-ethoxypyrrolidin-1-yl]-2H,3H,4H-pyrano[2,3-b]pyridin-3-yl]-3-methylthieno[2,3-b]pyrazine-6-carboxamide], the IC50 fell in the range of 200 to 2000 nM. The figure for `CCO[C@@H]1CN(c2ccc3c(n2)CC[C@H](NC(=O)c2sc4nc(C)ccc4c2N)C3)C[C@@H]1N` [Example 254, 3-amino-N-[(6S)-2-[(3S,4R)-3-amino-4-ethoxypyrrolidin-1-yl]-5,6,7,8-tetrahydroquinolin-6-yl]-6-methylthieno[2,3-b]pyridine-2-carboxamide] is 50 to 200 nM; for `CO[C@H]1CN(c2ccc3c(n2)CC[C@H](NC(=O)c2sc4nc(C)c(F)cc4c2N)C3)C[C@@H]1N` [Example 203, 3-amino-N-[(6S)-2-[(3S,4S)-3-amino-4-methoxypyrrolidin-1-yl]-5,6,7,8-tetrahydroquinolin-6-yl}-5-fluoro-6-methylthieno[2,3-b]pyridine-2-carboxamide] it is 50 to 200 nM; for `Cc1ccc2c(N)c(C(=O)N[C@H]3COc4cc(N5C[C@H](N)C(C)(C)C5)ccc4C3)sc2n1` [Example 214, 3-amino-N-[(3R)-7-[(4R)-4-amino-3,3-dimethylpyrrolidin-1-yl]-3,4-dihydro-2H-1-benzopyran-3-yl]-6-methylthieno[2,3-b]pyridine-2-carboxamide] it is 1 to 50 nM. Take `COC[C@@H]1CN(c2cc(F)c3c(c2)OC[C@H](NC(=O)c2sc4nc(C)ccc4c2N)C3)C[C@@H]1N` [Example 250, 3-amino-N-[(3R)-7-[(3R,4R)-3-amino-4-(methoxymethyl)pyrrolidin-1-yl]-5-fluoro-3,4-dihydro-2H-1-benzopyran-3-yl]-6-methylthieno[2,3-b]pyridine-2-carboxamide]: the IC50 is 1 to 50 nM. The figure for `CO[C@H]1CN(c2ccc3c(n2)CC[C@H](NC(=O)c2sc4nc(C)ccc4c2N)C3)C[C@]1(C)N` [Example 239, 3-amino-N-[(6S)-2-[(3S,4S)-3-amino-4-methoxy-3-methylpyrrolidin-1-yl]-5,6,7,8-tetrahydroquinolin-6-yl]-6-methylthieno[2,3-b]pyridine-2-carboxamide] is 200 to 2000 nM; for `Cc1ccc2c(N)c(C(=O)N[C@H]3COc4cc(N5CC[C@@H]6CC[C@@H](N)C[C@@H]65)ccc4C3)sc2n1` [Example 233, N-[(3R)-7-[(3aS,6R,7aS)-6-amino-octahydro-1H-indol-1-yl]-3,4-dihydro-2H-1-benzopyran-3-yl]-3-amino-6-methylthieno[2,3-b]pyridine-2-carboxamide] it is 1 to 50 nM.

On to `Cc1ccc2c(N)c(C(=O)N[C@H]3COc4cc(N5CC[C@H]6CC[C@@H](N)C[C@H]65)ccc4C3)sc2n1` [Example 231, N-[(3R)-7-[(3aR,6R,7aR)-6-amino-octahydro-1H-indol-1-yl]-3,4-dihydro-2H-1-benzopyran-3-yl]-3-amino-6-methylthieno[2,3-b]pyridine-2-carboxamide], for which the 50% inhibitory concentration (IC50) is 1 to 50 nM.

With `Cc1ccc2c(N)c(C(=O)N[C@H]3COc4cc(N5CC[C@H]6CCNC[C@H]65)ccc4C3)sc2n1` [Example 224, N-[(3R)-7-[(3aR,7aS)-octahydro-1H-pyrrolo[2,3-c]pyridin-1-yl]-3,4-dihydro-2H-1-benzopyran-3-yl]-3-amino-6-methylthieno[2,3-b]pyridine-2-carboxamide], the IC50 was in the range of 1 to 50 nM.

`Cc1cc(C)c2c(N)c(C(=O)N[C@H]3COc4c(C#N)c(N5CC6CCC(C5)N6)cc(F)c4C3)sc2n1` [Example 230, 3-amino-N-[(3R)-8-cyano-7-{3,8-diazabicyclo[3.2.1]octan-3-yl}-5-fluoro-3,4-dihydro-2H-1-benzopyran-3-yl]-4,6-dimethylthieno[2,3-b]pyridine-2-carboxamide]: the IC50 lay within 1 to 50 nM.

As for `COC[C@@H]1C[C@@H](N)CN1c1ccc2c(c1)OC[C@H](NC(=O)c1sc3nc(C)ccc3c1N)C2` [Example 260, 3-amino-N-[(3R)-7-[(25,4R)-4-amino-2-(methoxymethyl)pyrrolidin-1-yl]-3,4-dihydro-2H-1-benzopyran-3-yl]-6-methylthieno[2,3-b]pyridine-2-carboxamide], the IC50 was in the range of 1 to 50 nM.
